The record followed here is patent US8703793B2, “Tricyclic pyridine derivatives, medicaments containing such compounds, their use and process for their preparation” (Boehringer Ingelheim International GmbH, priority 2008, dated 2014).

Where only a bound is given, the exact number is not on record here.

In one test the target is T1, Recombinant human CETP (Homo sapiens, UniProt P11597).
T1 construct: made in house; host or cells: CHO cells (secreted into conditioned medium)
T1 sequence (P11597 18-493): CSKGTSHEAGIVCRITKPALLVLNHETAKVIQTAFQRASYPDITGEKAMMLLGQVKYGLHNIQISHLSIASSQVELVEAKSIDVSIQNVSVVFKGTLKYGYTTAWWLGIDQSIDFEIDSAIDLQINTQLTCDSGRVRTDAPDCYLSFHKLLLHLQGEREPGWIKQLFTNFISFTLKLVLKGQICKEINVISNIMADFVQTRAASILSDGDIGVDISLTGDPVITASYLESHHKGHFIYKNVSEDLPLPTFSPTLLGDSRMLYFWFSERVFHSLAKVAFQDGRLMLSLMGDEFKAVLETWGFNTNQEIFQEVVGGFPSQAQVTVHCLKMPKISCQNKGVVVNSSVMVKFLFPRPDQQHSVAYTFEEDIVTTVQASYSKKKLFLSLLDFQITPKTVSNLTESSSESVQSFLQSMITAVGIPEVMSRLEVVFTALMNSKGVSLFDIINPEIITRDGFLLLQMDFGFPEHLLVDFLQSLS
Description: CETP Scintillation Proximity Assay. The following applies: 3H-cholesteryl ester transfer from human HDL donor to biotin labelled LDL, over night at room temperature; read-out: IC50 values for CETP inhibitory activity. In kind it is biochemical. The protocol:
CETP Scintillation Proximity Assay
Recombinant human CETP is partially purified from medium conditioned by CETP expressing CHO cells. In a 96 well homogeneous assay format CETP transfers ^3H-labelled cholesteryl esters from human HDL donor particles to biotin labelled LDL particles. Following over night incubation at room temperature the reaction is stopped by addition of streptavidin-coupled scintillation proximity assay (SPA) beads. These beads captured the biotinylated acceptor particles and the radioactivity is measured. The assay system is purchased and performed according to the manufacturer's recommendations (GE Healthcare).
Inhibitory activity of compounds is determined as percentage of positive control activity containing CETP together with donor and acceptor particles. Background activity is determined by adding buffer instead of CETP. Serial dilution of compound in buffer containing 10% DMSO is performed in order to determine the IC50 values.
For orientation: In a scintillation proximity assay essentially only radioactivity close to the scintillant gives light.
`CC1(C)Cc2nc3c(c(C4CCCC4)c2[C@@H](O)C1)[C@H](c1ccc(C(F)(F)F)cc1)OC31CCCCC1` (single isomer, unassigned) [1 (8), (1′S,8′S)-9′-Cyclopentyl-6′,6′-dimethyl-1′-(4-(trifluoromethyl)phenyl)-5′,6′,7′,8′-tetrahydro-1′H-spiro[cyclohexane-1,3′-furo[3,4-b]quinolin]-8′-ol]: the IC50 (as a rule, the concentration that inhibits the measured activity by half) is less than 1 µM.

With `CC1(C)Cc2nc3c(c(C4CCCC4)c2[C@@H](O)C1)[C@@H](c1ccc(C(F)(F)F)cc1)OC31CCCCC1` (single isomer, unassigned) [1 (9), (1′R,8′S)-9′-Cyclopentyl-6′,6′-dimethyl-1′-(4-(trifluoromethyl)phenyl)-5′,6′,7′,8′-tetrahydro-1′H-spiro[cyclohexane-1,3′-furo[3,4-b]quinolin]-8′-ol], the IC50 was less than 20 µM.

Take `CC1(C)Cc2nc3c(c(C4CCCC4)c2[C@@H](O)C1)[C@H](c1ccc(C(F)(F)F)cc1)OC31CCCC1` (single isomer, unassigned) [1 (10), (1′S,8′S)-9′-Cyclopentyl-6′,6′-dimethyl-1′-(4-(trifluoromethyl)phenyl)-5′,6′,7′,8′-tetrahydro-1′H-spiro[cyclopentane-1,3′-furo[3,4-b]quinolin]-8′-ol]: the IC50 is less than 1 µM.

In the case of `CC1(C)Cc2nc3c(c(C4CCCC4)c2[C@@H](O)C1)C(c1ccc(C(F)(F)F)cc1)OC3` (single isomer, unassigned) [Diastereomer 1 of Example 1 (3)], the IC50 is less than 20 µM.

For `CC1OC(c2ccc(C(F)(F)F)cc2)c2c1nc1c(c2C2CCCC2)[C@@H](O)CC(C)(C)C1` (single isomer, unassigned) [Diastereomer 3 of Example 1 (2)], the IC50 is less than 1 µM.

For the compound `CC1OC(c2ccc(C(F)(F)F)cc2)c2c1nc1c(c2C2CCCC2)[C@@H](O)CC(C)(C)C1` (single isomer, unassigned) [Diastereomer 4 of Example 1 (2)], the IC50 was less than 2 µM.

Consider `CC1OC(c2ccc(C(F)(F)F)cc2)c2c1nc1c(c2C2CCCC2)[C@@H](O)CC(C)(C)C1` (single isomer, unassigned) [Example 1 (1)], for which the IC50 is less than 2 µM.

`CC1(C)Cc2nc3c(c(C4CCCC4)c2C(O)C1)C(c1ccc(C(F)(F)F)cc1)OC3(C)C` (single isomer, unassigned) [Example 1 (4), 9-Cyclopentyl-3,3,6,6-tetramethyl-1-(4-trifluoromethyl-phenyl)-1,3,5,6,7,8-hexahydro-furo[3,4-b]quinolin-8-ol]: the IC50 is less than 5 µM.

With `CC1(C)Cc2nc3c(c(C4CCCC4)c2[C@@H](O)C1)C(c1ccc(C(F)(F)F)cc1)OC3(C)C` (single isomer, unassigned) [Example 1 (5)], the IC50 is less than 1 µM.

As for `CC1(C)Cc2nc3c(c(C4CCCC4)c2[C@@H](O)C1)C(c1ccc(C(F)(F)F)cc1)OC3(C)C` (single isomer, unassigned) [Example 1 (6)], the IC50 is less than 20 µM.

On to `CC1OC(c2ccc(C(F)(F)F)cc2)c2c1nc1c(c2C2CCCCC2)[C@@H](O)CC(C)(C)C1` (single isomer, unassigned) [Example 1 (7)], for which the IC50 is less than 1 µM.

With `CC1OC(c2ccc(C(F)(F)F)cc2)c2c1nc1c(c2C2CCCC2)[C@@H](O)CC(C)(C)C1` (single isomer, unassigned) [Example 1], the IC50 is less than 2 µM.

For `CC1OC(c2ccc(C(C)(C)C)cc2)c2c1nc1c(c2C2CCCCC2)[C@@H](O)CC(C)(C)C1` (stereo partly drawn) [Example 2, 8-(S)-1-(4-tert-Butyl-phenyl)-9-cyclohexyl-3,6,6-trimethyl-1,3,5,6,7,8-hexahydro-furo[3,4b]quinolin-8-ol], the IC50 was less than 5 µM.

Staying with this test, now noted: comparison among diastereomers of the same structure.
As to `CC1OC(c2ccc(C(F)(F)F)cc2)c2c1nc1c(c2C2CCCC2)[C@@H](O)CC(C)(C)C1` (single isomer, unassigned) [Diastereomer 3 of Example 1 (2)], the “CETP inhibitory potency compared to the other diastereomers” value is recorded as “higher CETP inhibitory potency as compared to the other diastereomers”.

For `CC1(C)Cc2nc3c(c(C4CCCC4)c2[C@@H](O)C1)C(c1ccc(C(F)(F)F)cc1)OC3(C)C` (single isomer, unassigned) [Example 1 (5)], the “CETP inhibitory potency compared to the other diastereomers” value was “higher CETP inhibitory potency as compared to the other diastereomer”.
